Experimental data: ChEMBL document CHEMBL3046499, “Synthesis of 2,2-diphenylpropionate derivatives and their effects on larval growth of the silkworm” (2000)
Calls of active or inactive are those of the source. The rule behind the calls is not given here.

Legend:
Bombyx mori [1] = experiment: Insecticidal activity against fourth-instar larval stage of Bombyx mori Shunrei x Shongetsu assessed as fourth-instar larval duration time at 100 ppm administered through artificial diet (reference value: 5.1 +/- 0.2 days); format: functional
Bombyx mori [2] = experiment: Insecticidal activity against fourth-instar larval stage of Bombyx mori Shunrei x Shongetsu assessed as fourth-instar larval duration time at 30 ppm administered through artificial diet (reference value: 5.1 +/- 0.2 days); format: functional
Bombyx mori [3] = experiment: Insecticidal activity against fourth-instar larval stage of Bombyx mori Shunrei x Shongetsu assessed as delay in increase of hemolymph 20-hydroxyecdysone level at 50 ppm administered through artificial diet measured for 5 days post third ecdysis by ELISA relative to acetone-treated control; format: functional, organism-based

Row | Structure (SMILES) | Time (Bombyx mori [1]) [days] | Time (Bombyx mori [2]) [days] | Activity (Bombyx mori [3])
1 | CCN1CCN(CCOC(=O)C(C)(c2ccccc2)c2ccccc2)CC1 | 6.2 | 5.1 | –
2 | CCN1CCN(CCCCCCOC(=O)C(C)(c2ccccc2)c2ccccc2)CC1 | 4.5 | 4.7 | –
3 | CCN(CC)CCCOC(=O)C(C)(c1ccccc1)c1ccccc1 | 5.2 | 5.1 | –
4 | CC(C(=O)OCCCN1CCOCC1)(c1ccccc1)c1ccccc1 | 6.1 | 5 | –
5 | CN1[C@@H]2CC[C@H]1CC(OC(=O)[C@H](CO)c1ccccc1)C2 (stereo partly drawn) [ENDO-ATROPINE] | 6.3 | 5.2 | –
6 | CCN1CCN(CCCCOC(=O)C(C)(c2ccccc2)c2ccccc2)CC1 | 6.1 | 5.6 | –
7 | CC(C(=O)OCCCN1CCCC1)(c1ccccc1)c1ccccc1 | 6 | 5.2 | –
8 | CCN1CCN(CCCCCOC(=O)C(C)(c2ccccc2)c2ccccc2)CC1 | 5.8 | 5.1 | –
9 | CCN1CCN(CCCOC(=O)C(C)(c2ccccc2)c2ccccc2)CC1 | 7.2 | 6.5 | Active
10 | CN1CCN(CCCOC(=O)C(C)(c2ccccc2)c2ccccc2)CC1 | 7.5 | 6.9 | –
11 | CC(C(=O)OCCCN1CCCCC1)(c1ccccc1)c1ccccc1 | 7.4 | 5.1 | –
12 | CN1C2CCC1CC(OC(=O)C(C)(c1ccccc1)c1ccccc1)C2 (stereo unspecified) | – | 6.1 | –
13 | CN(CCCOC(=O)C(C)(c1ccccc1)c1ccccc1)C1CCCCC1 | 5.6 | 5 | –
